Among the data in patent publication US20130012546A1 (priority 2009, published 2013) are log p values, retold here.

The data set is described as follows: logP(HCOOH) by HPLC. The format is physicochemical. The settings on record: HPLC on reversed phase columns.
Where [1] appears, read: pH 2.7, 0.1% formic acid in water / acetonitrile, linear gradient 10% to 95% acetonitrile, EEC directive 79/831 Annex V.A8.
[2] abbreviates: pH 2.7, 0.1% formic acid in water / acetonitrile gradient.

In the case of `Cc1nnnn1C(=NOCc1cccc(NC(=O)OC(C)C2CCCC2)n1)c1ccccc1` (stereo not shown) [compound 158], under setting [1], the log p is listed as 4.71.

Regarding `Cn1nnnc1C(=NOCc1cccc(NC(=O)OCCC2CC2)n1)c1ccccc1` [compound 159], the log p under setting [1] was 3.72.

Consider `Cn1nnnc1C(=NOCc1cccc(NC(=O)OCCC2CCCC2)n1)c1ccccc1` [compound 160], for which the log p under setting [1] came to 4.61.

As for `CC(OC(=O)Nc1cccc(CON=C(c2ccccc2)c2nnnn2C)n1)C1CCCCC1` (stereo not shown) [compound 161], the log p under setting [1] came to 4.98.

Under setting [1], `CC(OC(=O)Nc1cccc(CON=C(c2ccccc2)c2nnnn2C)n1)C1CCCC1` (stereo not shown) [compound 162] gave a log p of 4.61.

Regarding `Cn1nnnc1C(=NOCc1cccc(NC(=O)OCC2CCC2)n1)c1ccccc1` [compound 163], under setting [1], the log p turned out to be 3.92.

With `CC(OC1CCCCC1)C(=O)Nc1nc(CON=C(c2ccccc2)c2nnnn2C2CC2)cs1` (stereo not shown) [compound 164], the log p under setting [1] was 4.53.

As for `Cc1nnnn1C(=NOCc1csc(NC(=O)C(C)OC2CCC2)n1)c1ccccc1` (stereo not shown) [compound 165], the log p under setting [1] was determined as 3.46.

Molecule `CCC(OC1CCCCC1)C(=O)Nc1nc(CON=C(c2ccccc2)n2nnnc2C)cs1` (stereo not shown) [compound 166] showed a log p under setting [1] of 4.56.

On to `CCC(OC1CCC1)C(=O)Nc1nc(CON=C(c2ccccc2)n2nnnc2C)cs1` (stereo not shown) [compound 167], for which the log p under setting [1] was 3.83.

Under setting [1], `CCC(OC1CCCC1)C(=O)Nc1nc(CON=C(c2ccccc2)n2nnnc2C)cs1` (stereo not shown) [compound 168] returned a log p of 4.24.

Molecule `CCC(OC1CCCCCC1)C(=O)Nc1nc(CON=C(c2ccccc2)n2nnnc2C)cs1` (stereo not shown) [compound 169] gave a log p under setting [1] of 4.93.

Under setting [1], `Cc1nnnn1C(=NOCc1csc(NC(=O)C(C)OC2CCCC(C)C2)n1)c1ccccc1` (stereo not shown) [compound 170] gave a log p of 4.53.

As to `Cc1nnnn1C(=NOCc1csc(NC(=O)C(C)OC2CCC(C)CC2)n1)c1ccccc1` (stereo not shown) [compound 171], the log p under setting [1] is listed as 4.53.

For `CC(OC1CCC1)C(=O)Nc1nc(CON=C(c2ccccc2)c2nnnn2C)cs1` (stereo not shown) [compound 172], the log p under setting [1] came to 3.39.

`CCC(OC1CCCCC1)C(=O)Nc1nc(CON=C(c2ccccc2)c2nnnn2C)cs1` (stereo not shown) [compound 173]: under setting [1], the log p came out at 4.42.

Take `CCC(OC1CCC1)C(=O)Nc1nc(CON=C(c2ccccc2)c2nnnn2C)cs1` (stereo not shown) [compound 174]: the log p under setting [1] was determined as 3.76.

With `CCC(OC1CCCC1)C(=O)Nc1nc(CON=C(c2ccccc2)c2nnnn2C)cs1` (stereo not shown) [compound 175], the log p under setting [1] came out at 4.16.

For the molecule `CCC(OC1CCCCCC1)C(=O)Nc1nc(CON=C(c2ccccc2)c2nnnn2C)cs1` (stereo not shown) [compound 176], the log p under setting [1] is listed as 4.87.

Under setting [1], `CC1CCCC(OC(C)C(=O)Nc2nc(CON=C(c3ccccc3)c3nnnn3C)cs2)C1` (stereo not shown) [compound 177] displayed a log p of 4.44.

`CC1CCC(OC(C)C(=O)Nc2nc(CON=C(c3ccccc3)c3nnnn3C)cs2)CC1` (stereo not shown) [compound 178] gave a log p under setting [1] of 4.44.

In turn, `Cn1nnnc1C(=NOCc1csc(NC(=O)C(OC2CCCCC2)c2ccccc2)n1)c1ccccc1` (stereo not shown) [compound 179] yielded a log p under setting [1] of 4.82.

On to `CC(OC1CCCCC1)C(=O)Nc1cccc(CON=C(c2ccccc2)c2nnnn2C2CC2)n1` (stereo not shown) [compound 180], for which the log p under setting [1] is given as 4.93.

Molecule `CC(OC1CCCCC1)C(=O)Nc1ccc(Br)c(CON=C(c2ccccc2)c2nnnn2C)n1` (stereo not shown) [compound 181] came in with a log p under setting [1] of 5.11.

As to `Cc1nnnn1C(=NOCc1cccc(NC(=O)C(C)OC2CCCCC2)n1)c1ccccc1` (stereo not shown) [compound 182], the log p under setting [1] was found to be 4.46.

`Cc1nnnn1C(=NOCc1cccc(NC(=O)C(C)OC2CCCC2)n1)c1ccccc1` (stereo not shown) [compound 183] displayed a log p under setting [1] of 4.12.

Take `Cc1nnnn1C(=NOCc1cccc(NC(=O)C(C)OC2CCCCCC2)n1)c1ccccc1` (stereo not shown) [compound 184]: under setting [1], the log p was found to be 4.86.

Turning to `Cc1nnnn1C(=NOCc1cccc(NC(=O)C(C)OC2CCC2)n1)c1ccccc1` (stereo not shown) [compound 185], under setting [1], the log p was 3.74.

Molecule `CCC(OC1CCCCC1)C(=O)Nc1cccc(CON=C(c2ccccc2)n2nnnc2C)n1` (stereo not shown) [compound 186] displayed a log p under setting [1] of 4.91.

`CCC(OC1CCC1)C(=O)Nc1cccc(CON=C(c2ccccc2)n2nnnc2C)n1` (stereo not shown) [compound 187] displayed a log p under setting [1] of 4.2.

Consider `CCC(OC1CCCC1)C(=O)Nc1cccc(CON=C(c2ccccc2)n2nnnc2C)n1` (stereo not shown) [compound 188], for which, under setting [1], the log p was determined as 4.65.

As for `CCC(OC1CCCCCC1)C(=O)Nc1cccc(CON=C(c2ccccc2)n2nnnc2C)n1` (stereo not shown) [compound 189], the log p under setting [1] is recorded as 5.41.

Regarding `Cc1nnnn1C(=NOCc1cccc(NC(=O)C(C)OC2CCCC(C)C2)n1)c1ccccc1` (stereo not shown) [compound 190], under setting [1], the log p is 4.96.

Under setting [1], `Cc1nnnn1C(=NOCc1cccc(NC(=O)C(C)OC2CCC(C)CC2)n1)c1ccccc1` (stereo not shown) [compound 191] showed a log p of 4.93.

For `CC(OC1CCC1)C(=O)Nc1cccc(CON=C(c2ccccc2)c2nnnn2C)n1` (stereo not shown) [compound 192], under setting [1], the log p is given as 3.7.

For `CCC(OC1CCCCC1)C(=O)Nc1cccc(CON=C(c2ccccc2)c2nnnn2C)n1` (stereo not shown) [compound 193], the log p under setting [2] is reported as 4.88.

As for `CCC(OC1CCC1)C(=O)Nc1cccc(CON=C(c2ccccc2)c2nnnn2C)n1` (stereo not shown) [compound 194], the log p under setting [2] came to 4.11.

As to `CCC(OC1CCCCCC1)C(=O)Nc1cccc(CON=C(c2ccccc2)c2nnnn2C)n1` (stereo not shown) [compound 195], the log p under setting [2] came out at 5.27.

In turn, `CCC(OC1CCCC1)C(=O)Nc1cccc(CON=C(c2ccccc2)c2nnnn2C)n1` (stereo not shown) [compound 196] gave a log p under setting [2] of 4.51.

With `CC1CCCC(OC(C)C(=O)Nc2cccc(CON=C(c3ccccc3)c3nnnn3C)n2)C1` (stereo not shown) [compound 197], the log p under setting [2] worked out at 4.81.

With `CC1CCC(OC(C)C(=O)Nc2cccc(CON=C(c3ccccc3)c3nnnn3C)n2)CC1` (stereo not shown) [compound 198], under setting [2], the log p is 4.81.

`Cn1nnnc1C(=NOCc1csc(NC(=O)CON=C2CCCCC2)n1)c1ccccc1` [compound 200]: under setting [2], the log p is 3.46.

As for `CC(=NOCC(=O)Nc1cccc(CON=C(c2ccccc2)n2nnnc2C)n1)c1ccccc1` [compound 202], the log p under setting [2] turned out to be 3.94.

Under setting [2], `CC(C)=NOC(C)C(=O)Nc1cccc(CON=C(c2ccccc2)n2nnnc2C)n1` (stereo not shown) [compound 203] had a log p of 3.35.

In the case of `CC(=NOCC(=O)Nc1cccc(CON=C(c2ccccc2)n2nnnc2C)n1)C(C)(C)C` [compound 204], the log p under setting [2] was found to be 4.34.

As to `CC1=C(CC(C)OC(=O)Nc2nc(CON=C(c3ccccc3)n3nnnc3C)cs2)C1(C)C` (stereo not shown) [compound 207], the log p under setting [2] is 4.86.

Take `CC1=C(CC(C)OC(=O)Nc2nc(CON=C(c3ccccc3)n3nnnc3C)cs2)C1` (stereo not shown) [compound 208]: the log p under setting [2] is reported as 4.11.

In turn, `CC1=C(CC(C)OC(=O)Nc2nc(CON=C(c3ccccc3)c3nnnn3C)cs2)C1(C)C` (stereo not shown) [compound 209] gave a log p under setting [2] of 4.68.

Under setting [2], `CC1=C(CC(C)OC(=O)Nc2nc(CON=C(c3ccccc3)c3nnnn3C)cs2)C1` (stereo not shown) [compound 210] had a log p of 4.06.

Turning to `Cn1nnnc1C(=NOCc1csc(NC(=O)OC2CCc3ccccc3C2)n1)c1ccccc1` (stereo not shown) [compound 211], under setting [2], the log p is on record as 4.14.

For the molecule `CC(C)=NOCCOC(=O)Nc1cccc(CON=C(c2ccccc2)c2nnnn2C)n1` [compound 213], the log p under setting [2] is 3.11.

Under setting [2], `CC=NOCCOC(=O)Nc1cccc(CON=C(c2ccccc2)c2nnnn2C)n1` [compound 214] displayed a log p of 2.96.
